pIC50: −log10 of the molar value. Entries after “also recorded” stand apart in the source; their conditions may differ.
Columns and labels:
phospho-thr-231-tau = phospho-thr-231-tau levels in LA1-5s neuroblastoma cells; format: cell-based, human; settings: LA1-5s cells
Description: Shown here are Mean±SEM (N=4) values relative to the mean initial basal or insulin-stimulated level of indicated immunoreactive protein/peptide. Asterisks: *, P<0.05; **, P<0.01; ***, P<0.001 (ANOVA).
Western Analyses. As described, Western analyses were conducted with rabbit antisera or mouse monoclonal antibodies (mMab), using: anti-aPKC (Santa Cruz Biotechnologies, Santa Cruz, CA); anti-phospho-threonine-560/555-PKC-ζ/λ/ι (Invitrogen, Carlsbad, CA); anti-p-serine-256-FoxO1 and anti-FoxO1 (Abnova, Walnut, CA); anti-Akt (mMab), anti-phospho-serine-473-Akt, anti-phospho-serine-9-GSK3P anti-GSK313, anti-phospho-serine-253-FoxO3a, anti-FoxO3a, anti-phospho-serine-256-FoxO1, anti-phospho-serine-193-FoxO4; anti-FoxO1, anti-phospho-serine-2448-mTOR, anti-mTOR, anti-β-amyloid (anti-5-10 kDa-Aβ1-40/42) and anti-amyloid precursor protein (anti-120 kDa-APP) (Cell Signaling Technologies, Danvers, MA); and anti-phospho-serine-202-tau, anti-phospho-threonine-231-tau (Gene Tex, Irvine, CA). Samples from experimental groups were compared on the same blots, and routinely checked with loading controls. Note that: insulin-sensitive 70 kDa aPKC is largely PKC-ζ in mouse brain and orthologous PKC-ι (98% aa homology) in monkey and other primate brains; brain PKC-ζ exists largely as a 50 kDa moiety that, lacking a regulatory domain, is constitutively-active and unresponsive to insulin.

[1] = Het-MλKO mice, reported previously; cited from earlier work
aPKC = molecular target: T1, aPKC (Homo sapiens, UniProt P41743); test: aPKC activity in LA1-5s neuroblastoma cells; format: cell-based; design: endogenous in cells; host or cells: LA1-5s human neuroblastoma cells
T1 sequence (P41743 2-596): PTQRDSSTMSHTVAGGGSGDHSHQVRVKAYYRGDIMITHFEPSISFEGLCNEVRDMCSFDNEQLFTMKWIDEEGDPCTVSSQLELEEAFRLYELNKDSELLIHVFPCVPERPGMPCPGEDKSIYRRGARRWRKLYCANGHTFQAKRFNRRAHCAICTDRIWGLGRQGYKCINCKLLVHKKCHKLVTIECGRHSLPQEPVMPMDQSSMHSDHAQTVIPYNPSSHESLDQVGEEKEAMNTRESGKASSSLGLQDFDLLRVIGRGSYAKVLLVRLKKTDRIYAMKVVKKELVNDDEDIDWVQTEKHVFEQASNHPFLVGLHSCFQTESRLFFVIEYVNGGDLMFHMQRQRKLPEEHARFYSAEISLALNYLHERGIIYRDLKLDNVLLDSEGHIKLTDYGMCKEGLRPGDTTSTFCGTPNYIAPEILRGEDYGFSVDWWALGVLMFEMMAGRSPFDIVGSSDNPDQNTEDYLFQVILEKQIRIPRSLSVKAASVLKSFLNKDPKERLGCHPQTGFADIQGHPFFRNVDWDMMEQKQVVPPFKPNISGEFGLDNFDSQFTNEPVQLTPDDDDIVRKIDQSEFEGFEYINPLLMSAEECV

In the case of `NC(=O)c1ncn([C@@H]2C[C@H](COP(=O)(O)O)[C@@H](O)[C@H]2O)c1N` [ICAPP], the “effect on metformin-induced increase in phospho-thr-231-tau” value (phospho-thr-231-tau) is given as “dose-dependently inhibited”, the “serum insulin levels / hyperinsulinemia” value [1] is given as “fully/sufficiently improved; also recorded: reduced serum insulin levels in Het-MλKO mice to normal” and the “effect on metformin-induced increase in aPKC activity” value (aPKC; LA1-5s cells) is given as “dose-dependently inhibited”. For the same compound, the pIC50 (aPKC; LA1-5s human neuroblastoma cells, 200 nM insulin, read-out: IC50, inhibition of insulin-stimulated aPKC activity) was 8.00 to 9.00.

Reference: patent publication US11865125B2, “APKC inhibitors and methods of treating a neurodegenerative disease or disorder” (UNIVERSITY OF SOUTH FLORIDA, priority 2016, dated 2024)
